The target in the assay is T1, GLP-1R (Homo sapiens, UniProt P43220).
T1 construct: host or cells: GLP-1R CRE-bla CHO-K1 cells
T1 sequence (P43220 24-463): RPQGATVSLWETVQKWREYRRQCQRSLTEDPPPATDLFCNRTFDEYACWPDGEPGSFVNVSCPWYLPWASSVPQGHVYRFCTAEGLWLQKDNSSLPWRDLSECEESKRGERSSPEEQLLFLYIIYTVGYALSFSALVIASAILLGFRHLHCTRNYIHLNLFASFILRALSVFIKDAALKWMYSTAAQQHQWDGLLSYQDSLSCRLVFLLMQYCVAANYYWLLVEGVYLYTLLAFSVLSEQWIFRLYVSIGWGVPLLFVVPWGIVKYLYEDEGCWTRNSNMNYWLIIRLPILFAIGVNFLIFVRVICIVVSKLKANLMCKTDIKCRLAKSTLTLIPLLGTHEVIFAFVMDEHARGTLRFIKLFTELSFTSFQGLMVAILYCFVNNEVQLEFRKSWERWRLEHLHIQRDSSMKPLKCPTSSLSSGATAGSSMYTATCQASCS
T1 sequence (P01275 100-127 partner limits assumed): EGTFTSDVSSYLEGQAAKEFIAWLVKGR
Put plainly: EC20 GLP-1(9-36) PAM cAMP assay: dose response of compound in the presence of fixed concentration of GLP-1(9-36). The settings on record: dose response of compound in presence of fixed concentration of GLP-1(9-36), GLP-1R CRE-bla CHO-K1 cells, read-out: EC20 GLP-1(9-36) PAM EC50. The assay is classed as cell-based. In outline: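 Positive allosteric modulation read as cAMP accumulation: compound titrations (12 points) combined with an EC20 level of GLP-1(9-36) on CHO-K1 GLP-1R CRE-bla cells, IBMX present, 30 min, 37 °C, pH 7.4 buffer. Luminescence converted to cAMP via standards; non-linear fit gave EC50 and Emax.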
Take `CCCCCCCOc1ccc(-c2cnc(-c3ccc(C[C@H](NC(=O)c4ccc(C(C)(C)C)s4)C(=O)N4CCCC45CNC5)cc3)nc2)cc1` [Compound 1048]: the concentration giving a half-maximal response (EC50) – broadly, the concentration giving half of the maximal effect – was in the range of 2.5 to 5 µM. On to `CCCCCCCOc1ccc(-c2cnc(-c3ccc(C[C@H](NC(=O)c4ccc(C(C)(C)C)s4)C(=O)N4C5CCC4C(C(=O)O)C5)cc3)nc2)cc1` (some centres unmarked) [Compound 1049], for which the 50% effective concentration (EC50) lay within 0.8 to 2.5 µM. Then `C[C@@H](NC(=O)[C@H](Cc1ccc(-c2ncc(/C=C\c3ccccc3)cn2)cc1)NC(=O)c1ccc(C(C)(C)C)s1)C(=O)O` [Compound 1050], with 0.8 to 2.5 µM; and `C[C@@H](NC(=O)[C@H](Cc1ccc(-c2ncc(/C=C\CCCc3ccccc3)cn2)cc1)NC(=O)c1ccc(C(C)(C)C)s1)C(=O)O` [Compound 1051], with 5 to 10 µM; and `Cc1ccc(/C=C/c2cnc(-c3ccc(C[C@H](NC(=O)c4ccc(C(C)(C)C)s4)C(=O)N[C@H](C)C(=O)O)cc3)nc2)cc1` [Compound 1052], with 2.5 to 5 µM.

As for `COCCc1ccc(OCc2ccc(-c3cnc(-c4ccc(C[C@H](NC(=O)c5ccc(C(C)(C)C)s5)C(=O)N[C@H](C)C(=O)O)cc4)nc3)cc2)cc1` [Compound 1053], the half-maximal effective concentration (EC50) lay in the range of 2.5 to 5 µM. Then `COc1ccc(-c2cnc(-c3ccc(C[C@H](NC(=O)c4ccc(C(C)(C)C)s4)C(=O)N[C@H](C)C(=O)O)cc3)nc2)cc1C12CC3CC(CC(C3)C1)C2` [Compound 1054], with 2.5 to 5 µM; and `CCc1ccc(/C=C/c2cnc(-c3ccc(C[C@H](NC(=O)c4ccc(C(C)(C)C)s4)C(=O)N[C@H](C)C(=O)O)cc3)nc2)cc1` [Compound 1055], with 2.5 to 5 µM. Then `CC[C@H]1CC[C@H](c2ccc(-c3cnc(-c4ccc(C[C@H](NC(=O)c5ccc(C(C)(C)C)s5)C(=O)N[C@H](C)C(=O)O)cc4)nc3)cc2)CC1` [Compound 1056, ((S)-2-(5-(tert-butyl)thiophene-2-carboxamido)-3-(4-(5-(4-((1r,4r)-4-ethylcyclohexyl)phenyl)pyrimidin-2-yl)phenyl)propanoyl)-D-alanine], with less than 0.8 µM. The value for `CC[C@H]1CC[C@H](c2ccc(-c3cnc(-c4ccc(C[C@H](NC(=O)c5ccc(C(C)(C)C)s5)C(=O)N5CC(C(=O)O)C5)cc4)nc3)cc2)CC1` [Compound 1057, 1-((S)-2-(5-(tert-butyl)thiophene-2-carboxamido)-3-(4-(5-(4-((1r,4r)-4-ethylcyclohexyl)phenyl)pyrimidin-2-yl)phenyl)propanoyl)azetidine-3-carboxylic acid] was less than 0.8 µM. As to `CC[C@H]1CC[C@H](c2ccc(-c3cnc(-c4ccc(C[C@H](NC(=O)c5ccc(C(C)(C)C)s5)C(=O)O)cc4)nc3)cc2)CC1` [Compound 1058, (S)-2-(5-(tert-butyl)thiophene-2-carboxamido)-3-(4-(5-(4-((1r,4r)-4-ethylcyclohexyl)phenyl)pyrimidin-2-yl)phenyl)propanoic acid], the half-maximal effective concentration (EC50) is less than 0.8 µM. The value for `CC[C@H]1CC[C@H](c2ccc(N3CCN(c4ccc(C[C@H](NC(=O)c5ccc(C(C)(C)C)s5)C(=O)O)cc4)CC3)cc2)CC1` [Compound 1059, (S)-2-(5-(tert-butyl)thiophene-2-carboxamido)-3-(4-(4-(4-((1r,4r)-4-ethylcyclohexyl)phenyl)piperazin-1-yl)phenyl)propanoic acid] was 5 to 10 µM; that for `CC[C@H]1CC[C@H](c2ccc(N3CCN(c4ccc(C[C@H](NC(=O)c5ccc(C(C)(C)C)s5)C(=O)N5CC(C(=O)O)C5)cc4)CC3)cc2)CC1` [Compound 1060] was 2.5 to 5 µM.

In the case of `CCCc1ccc(-c2ccc(-c3cnc(-c4ccc(C[C@H](NC(=O)c5ccc(C(C)(C)C)s5)C(=O)O)cc4)nc3)c(F)c2)cc1` [Compound 1061], the EC50 fell in the range of 2.5 to 5 µM. Then `CCCCCCCOc1ccc(-c2cnc(-c3ccc(C[C@H](NC(=O)c4ccc(C(C)(C)C)s4)C(=O)O)cc3)nc2)nc1` [Compound 1062, (S)-2-(5-(tert-butyl)thiophene-2-carboxamido)-3-(4-(5-(5-(heptyloxy)pyridin-2-yl)pyrimidin-2-yl)phenyl)propanoic acid], with 0.8 to 2.5 µM; and `CCCCCCCOc1ccc(-c2cnc(-c3ccc(C[C@H](NC(=O)c4ccc(C(C)(C)C)s4)C(=O)N[C@H](C)C(=O)O)cc3)nc2)nc1` [Compound 1063], with less than 0.8 µM. Then `CCCCCCCOc1ccc(-c2cnc(-c3ccc(C[C@H](NC(=O)c4ccc(C(C)(C)C)s4)C(=O)N4CCC[C@H]4C(=O)O)cc3)nc2)nc1` [Compound 1064], with 0.8 to 2.5 µM; and `CCCCCCCOc1ccc(-c2cnc(-c3ccc(C[C@H](NC(=O)c4ccc(C(C)(C)C)s4)C(=O)N4CC[C@H](C(=O)O)C4)cc3)nc2)nc1` [Compound 1065], with less than 0.8 µM. Then `CCCCCCCOc1ccc(-c2cnc(-c3ccc(C[C@H](NC(=O)c4ccc(C(C)(C)C)s4)C(=O)N4CC(C(=O)O)C4)cc3)nc2)nc1` [Compound 1066], with 0.8 to 2.5 µM.

In the case of `CC[C@H]1CC[C@H](c2ccc(-c3cnc(-c4ccc(C[C@H](NC(=O)c5ccc(C(C)(C)C)s5)C(=O)N[C@@H](C)C(=O)O)cc4)nc3)cc2)CC1` [Compound 1067], the concentration for a half-maximal effect (EC50) fell in the range of 0.8 to 2.5 µM.

In the case of `CCCCCCCOc1ccc(-c2cnc(-c3ccc(C[C@H](NC(=O)c4cnn(C(C)(C)C)c4)C(=O)N4CCC[C@H]4C(=O)O)cc3)nc2)cc1` [Compound 1068], the half-maximal effective concentration (EC50) is 0.8 to 2.5 µM. Take `CCCCCCCOc1ccc(-c2cnc(-c3ccc(C[C@H](NC(=O)c4ccc(CCC)s4)C(=O)N4CCC[C@H]4C(=O)O)cc3)nc2)cc1` [Compound 1069]: the concentration for a half-maximal effect (EC50) lay in the range of 0.8 to 2.5 µM. The value for `CCCCCCCOc1ccc(-c2cnc(-c3ccc(C[C@H](NC(=O)Cc4ccc(OCCCC)cc4)C(=O)N4CCC[C@H]4C(=O)O)cc3)nc2)cc1` [Compound 1070] was 0.8 to 2.5 µM; that for `CCCCCCCOc1ccc(-c2cnc(-c3ccc(C[C@H](NC(=O)c4ccc(OCCC)cc4)C(=O)N4CCC[C@H]4C(=O)O)cc3)nc2)cc1` [Compound 1071] was 2.5 to 5 µM; that for `CCCCCCCOc1ccc(-c2cnc(-c3ccc(C[C@H](NC(=O)c4ccc(CC)s4)C(=O)N4CCC[C@H]4C(=O)O)cc3)nc2)cc1` [Compound 1072] was 0.8 to 2.5 µM.

For the compound `CCCCCCCOc1ccc(-c2cnc(-c3ccc(C[C@H](NC(=O)c4ccc(CCC)cc4)C(=O)N4CCC[C@H]4C(=O)O)cc3)nc2)cc1` [Compound 1073], the EC50 fell in the range of 0.8 to 2.5 µM.

Take `CCCCCCCOc1ccc(-c2cnc(-c3ccc(C[C@H](NC(=O)c4ccc(C(C)C)cc4)C(=O)N4CCC[C@H]4C(=O)O)cc3)nc2)cc1` [Compound 1074]: the concentration for a half-maximal effect (EC50) was 0.8 to 2.5 µM.

Regarding `CCCCCCCOc1ccc(-c2cnc(-c3ccc(C[C@H](NC(=O)c4ccc(CCCC)cc4)C(=O)N4CCC[C@H]4C(=O)O)cc3)nc2)cc1` [Compound 1075], the concentration for a half-maximal effect (EC50) is 0.8 to 2.5 µM. For `CCCCCCCOc1ccc(-c2cnc(-c3ccc(C[C@H](NC(=O)c4ccc(CC(C)C)cc4)C(=O)N4CCC[C@H]4C(=O)O)cc3)nc2)cc1` [Compound 1076], the concentration for a half-maximal effect (EC50) lay within 2.5 to 5 µM. The value for `CCCCCCCOc1ccc(-c2cnc(-c3ccc(C[C@H](NC(=O)c4ccc(C(C)(C)C)nc4)C(=O)N4CCC[C@H]4C(=O)O)cc3)nc2)cc1` [Compound 1077] was 0.8 to 2.5 µM; that for `CCCCCCCOc1ccc(-c2cnc(-c3ccc(C[C@H](NC(=O)c4cnc(C(C)(C)C)nc4)C(=O)N4CCC[C@H]4C(=O)O)cc3)nc2)cc1` [Compound 1078] was 2.5 to 5 µM; that for `CCCCCCCOc1ccc(-c2cnc(-c3ccc(C[C@H](NC(=O)c4cnn(C(C)(C)C)c4C)C(=O)N4CCC[C@H]4C(=O)O)cc3)nc2)cc1` [Compound 1079] was 2.5 to 5 µM. The value for `CCCCCCCOc1ccc(-c2cnc(-c3ccc(C[C@H](NC(=O)c4ccc(CC(C)C)s4)C(=O)N4CCC[C@H]4C(=O)O)cc3)nc2)cc1` [Compound 1080] was 0.8 to 2.5 µM; that for `CCCCCCCOc1ccc(-c2cnc(-c3ccc(C[C@H](NC(=O)c4ccc(C(C)(C)C)c(OC)c4)C(=O)N4CCC[C@H]4C(=O)O)cc3)nc2)cc1` [Compound 1081] was 0.8 to 2.5 µM; that for `CCCCCCCOc1ccc(-c2cnc(-c3ccc(C[C@H](NC(=O)c4ccc(C(C)(C)CC)cc4)C(=O)N4CCC[C@H]4C(=O)O)cc3)nc2)cc1` [Compound 1082] was 0.8 to 2.5 µM.

For `CCCCCCCOc1ccc(-c2cnc(-c3ccc(C[C@H](NC(=O)c4ccc(C5(C)CC5)cc4)C(=O)N4CCC[C@H]4C(=O)O)cc3)nc2)cc1` [Compound 1083], the concentration for a half-maximal effect (EC50) was in the range of 0.8 to 2.5 µM. With `CC(C)(C)c1ccc(C(=O)N[C@@H](Cc2ccc(-c3ncc(-c4ccc(C5CCCC5)cc4)cn3)cc2)C(=O)N2CC[C@H](C(=O)O)C2)s1` [Compound 1084], the EC50 is less than 0.8 µM. For the compound `Cc1ccc(/C=C/c2cnc(-c3ccc(C[C@H](NC(=O)c4ccc(C(C)(C)C)s4)C(=O)N4CC[C@H](C(=O)O)C4)cc3)nc2)cc1` [Compound 1085], the EC50 was 0.8 to 2.5 µM.

For the compound `CCc1ccc(/C=C/c2cnc(-c3ccc(C[C@H](NC(=O)c4ccc(C(C)(C)C)s4)C(=O)N4CC[C@H](C(=O)O)C4)cc3)nc2)cc1` [Compound 1086], the EC50 was in the range of 0.8 to 2.5 µM. The value for `Cc1cc(-c2cnc(-c3ccc(C[C@H](NC(=O)c4ccc(C(C)(C)C)s4)C(=O)N4CC[C@H](C(=O)O)C4)cc3)nc2)ccc1OC(C)C` [Compound 1087] was less than 0.8 µM. Regarding `CC1(C)CCC(c2ccc(-c3cnc(-c4ccc(C[C@H](NC(=O)c5ccc(C(C)(C)C)s5)C(=O)N5CC(C(=O)O)C5)cc4)nc3)cc2)CC1` [Compound 1088], the 50% effective concentration (EC50) was less than 0.8 µM.

With `CC(C)(C)c1ccc(C(=O)N[C@@H](Cc2ccc(-c3ncc(-c4ccc(C5CCCC5)cc4)cn3)cc2)C(=O)N2CC(C(=O)O)C2)s1` [Compound 1089], the concentration for a half-maximal effect (EC50) fell in the range of 0.8 to 2.5 µM.

Consider `CC(C)(C)c1ccc(C(=O)N[C@@H](Cc2ccc(-c3ncc(-c4ccc(-c5ccccc5)cc4)cn3)cc2)C(=O)N2CC(C(=O)O)C2)s1` [Compound 1090], for which the EC50 is less than 0.8 µM. Then `Cc1ccc(/C=C/c2cnc(-c3ccc(C[C@H](NC(=O)c4ccc(C(C)(C)C)s4)C(=O)N4CC(C(=O)O)C4)cc3)nc2)cc1` [Compound 1091], with 0.8 to 2.5 µM.

The values are drawn from patent US10034886B2, “GLP-1 receptor modulators” (Celgene International II SÀRL, priority 2014, dated 2018).
